From PMC3639647, “Cloning, Expression, and Purification of Nucleoside Diphosphate Kinase from Acinetobacter baumannii” (Enzyme Research, 2013)

Target: T1, Ndk (nucleoside diphosphate kinase) (Acinetobacter baumannii, UniProt B0VKS3)
T1 construct: E. coli BL21(DE3), Ni-NTA
T1 sequence (B0VKS3 1-143): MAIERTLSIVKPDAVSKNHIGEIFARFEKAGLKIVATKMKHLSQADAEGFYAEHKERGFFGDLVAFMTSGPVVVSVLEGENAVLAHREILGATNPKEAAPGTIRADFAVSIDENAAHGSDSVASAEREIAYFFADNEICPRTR
Assay: intrinsic tryptophan/tyrosine fluorescence quenching titration (excitation […] nm)
Assay type: binding
Settings: pH 7 (neutral), 25 °C, 17 µM protein, ATP 20-100 µM

Nc1ncnc2c1ncn2[C@@H]1O[C@H](COP(=O)(O)OP(=O)(O)OP(=O)(O)O)[C@@H](O)[C@H]1O [ATP]
intrinsic tryptophan/tyrosine fluorescence quenching titration (excitation 280 n): Binding of the substrate ATP with the enzyme was confirmed by the quenching of fluorescence
